Assay results reported in patent US10807992B2, “Single enantiomer antiparasitic compounds” (priority 2017, dated 2020).
Like-named read-outs stand apart in the source and are kept apart here.

Test system: Aedes aegypti
Assay: In vitro contact activity against adult mosquitoes (coated vial)
Method: Aedes aegypti (Louisiana Biologicals Inc., New Orleans, La.) eggs were allowed to hatch, close, and age between 3-5 days in an environmental chamber at 26° C., 80% humidity with light/dark cycles.
For mosquito assays, an aliquot from each compound stock was added to an acetone/triton solution to achieve the desired top doses for the study. Serial dilutions were conducted from the top dose (i.e. 50 ppm) to achieve the desired titration range for EC50 and EC90 determination. The final DMSO concentration in each test vial was 0.5%. A 459 μL aliquot of each compound formulation was transferred to a vial and vials were immediately placed on an unheated roller unit to allow for an even coating of the vial walls. The vials were loosely capped and allowed to dry for a minimum of four hours in a chemical fume hood.
For both contact and ingestion assays, five female Aedes aegypti adults were added to each vial or cage. The test vials for contact assays were held in an environmental chamber at 24° C., 80% humidity with light/dark cycles (12 hours each). The cages for mosquito ingestion assays were held in a temperature-controlled artificial feeding apparatus to allow continual access to organic bovine blood containing the desired concentration of compound. Fresh aliquots of compound-spiked bovine blood were provided daily for the duration of the study.
Mosquitoes showing no movement or mosquitoes that were knocked down were noted as dead. Results from trial 1 and trial 2 contact assays are shown in Tables 12 and 13, respectively and the results from trial 3 mosquito ingestion assay is shown in table 14.
For the mosquito contact and ingestion assays, each replicate contained 5 mosquitoes. For ease of calculation, the two replicates were added to equal a total of 10 mosquitoes.

Q: With `O=C(CC(F)(F)F)N1CC2(C1)OCc1cc(C3=NS[C@@](c4cc(Cl)c(F)c(Cl)c4)(C(F)(F)F)C3)ccc12` [C1 (S) enantiomer, (S)-1-[6-[5-(3,5-dichloro-4-fluoro-phenyl)-5-(trifluoromethyl)-4H-isothiazol-3-yl]spiro[1H-isobenzofuran-3,3′-azetidine]-1′-yl]-3,3,3-trifluoro-propan-1-one] as the molecule, how does the mortality at 0.049 µM (0.5 h, read-out: % Mortality R1 + R2, Trial 1, contact assay, dose 0.049 μM, 0.5 Hr) read?
A: 0%

Q: And the mortality at 0.2 µM (0.5 h, read-out: % Mortality R1 + R2, Trial 1, contact assay, dose 0.20 μM, 0.5 Hr)?
A: 0%

Q: What about the mortality at 0.78 µM (0.5 h, read-out: % Mortality R1 + R2, Trial 1, contact assay, dose 0.78 μM, 0.5 Hr) of the same molecule?
A: 0%

Q: What about the mortality at 3.125 µM (0.5 h, read-out: % Mortality R1 + R2, Trial 1, contact assay, dose 3.125 μM, 0.5 Hr) of the same molecule?
A: 0%

Q: And the mortality at 12.5 µM (0.5 h, read-out: % Mortality R1 + R2, Trial 1, contact assay, dose 12.5 μM, 0.5 Hr)?
A: 0%

Q: What about the mortality at 50 µM (0.5 h, read-out: % Mortality R1 + R2, Trial 1, contact assay, dose 50 μM, 0.5 Hr) of the same molecule?
A: 0%

Q: What about the mortality at 0.049 µM (0.5 h, read-out: % Mortality R1 + R2, Trial 2, contact assay, dose 0.049 μM, 0.5 Hr) of the same molecule?
A: 0%

Q: What about the mortality at 0.2 µM (0.5 h, read-out: % Mortality R1 + R2, Trial 2, contact assay, dose 0.20 μM, 0.5 Hr) of the same molecule?
A: 0%

Q: What about the mortality at 0.78 µM (0.5 h, read-out: % Mortality R1 + R2, Trial 2, contact assay, dose 0.78 μM, 0.5 Hr) of the same molecule?
A: 0%

Q: What about the mortality at 3.125 µM (0.5 h, read-out: % Mortality R1 + R2, Trial 2, contact assay, dose 3.125 μM, 0.5 Hr) of the same molecule?
A: 0%

Q: What about the mortality at 12.5 µM (0.5 h, read-out: % Mortality R1 + R2, Trial 2, contact assay, dose 12.5 μM, 0.5 Hr) of the same molecule?
A: 0%

Q: What about the mortality at 50 µM (0.5 h, read-out: % Mortality R1 + R2, Trial 2, contact assay, dose 50 μM, 0.5 Hr) of the same molecule?
A: 0%

Q: What about the mortality at 0.049 µM (1 h, read-out: % Mortality R1 + R2, Trial 1, contact assay, dose 0.049 μM, 1 hr) of the same molecule?
A: 0%

Q: What about the mortality at 0.2 µM (1 h, read-out: % Mortality R1 + R2, Trial 1, contact assay, dose 0.20 μM, 1 hr) of the same molecule?
A: 0%

Q: And the mortality at 0.78 µM (1 h, read-out: % Mortality R1 + R2, Trial 1, contact assay, dose 0.78 μM, 1 hr)?
A: 0%

Q: And the mortality at 3.125 µM (1 h, read-out: % Mortality R1 + R2, Trial 1, contact assay, dose 3.125 μM, 1 hr)?
A: 0%

Q: And the mortality at 12.5 µM (1 h, read-out: % Mortality R1 + R2, Trial 1, contact assay, dose 12.5 μM, 1 hr)?
A: 0%

Q: What about the mortality at 50 µM (1 h, read-out: % Mortality R1 + R2, Trial 1, contact assay, dose 50 μM, 1 hr) of the same molecule?
A: 0%

Q: And the mortality at 0.049 µM (1 h, read-out: % Mortality R1 + R2, Trial 2, contact assay, dose 0.049 μM, 1 hr)?
A: 0%

Q: What about the mortality at 0.2 µM (1 h, read-out: % Mortality R1 + R2, Trial 2, contact assay, dose 0.20 μM, 1 hr) of the same molecule?
A: 0%

Q: What about the mortality at 0.78 µM (1 h, read-out: % Mortality R1 + R2, Trial 2, contact assay, dose 0.78 μM, 1 hr) of the same molecule?
A: 0%

Q: What about the mortality at 3.125 µM (1 h, read-out: % Mortality R1 + R2, Trial 2, contact assay, dose 3.125 μM, 1 hr) of the same molecule?
A: 0%

Q: What about the mortality at 12.5 µM (1 h, read-out: % Mortality R1 + R2, Trial 2, contact assay, dose 12.5 μM, 1 hr) of the same molecule?
A: 0%

Q: And the mortality at 50 µM (1 h, read-out: % Mortality R1 + R2, Trial 2, contact assay, dose 50 μM, 1 hr)?
A: 0%

Q: What about the mortality at 0.049 µM (6 h, read-out: % Mortality R1 + R2, Trial 1, contact assay, dose 0.049 μM, 6 hr) of the same molecule?
A: 0%

Q: What about the mortality at 0.2 µM (6 h, read-out: % Mortality R1 + R2, Trial 1, contact assay, dose 0.20 μM, 6 hr) of the same molecule?
A: 0%

Q: What about the mortality at 0.78 µM (6 h, read-out: % Mortality R1 + R2, Trial 1, contact assay, dose 0.78 μM, 6 hr) of the same molecule?
A: 0%

Q: What about the mortality at 3.125 µM (6 h, read-out: % Mortality R1 + R2, Trial 1, contact assay, dose 3.125 μM, 6 hr) of the same molecule?
A: 0%

Q: What about the mortality at 12.5 µM (6 h, read-out: % Mortality R1 + R2, Trial 1, contact assay, dose 12.5 μM, 6 hr) of the same molecule?
A: 30%

Q: And the mortality at 50 µM (6 h, read-out: % Mortality R1 + R2, Trial 1, contact assay, dose 50 μM, 6 hr)?
A: 100%

Q: And the mortality at 0.049 µM (6 h, read-out: % Mortality R1 + R2, Trial 2, contact assay, dose 0.049 μM, 6 hr)?
A: 0%

Q: What about the mortality at 0.2 µM (6 h, read-out: % Mortality R1 + R2, Trial 2, contact assay, dose 0.20 μM, 6 hr) of the same molecule?
A: 0%

Q: And the mortality at 0.78 µM (6 h, read-out: % Mortality R1 + R2, Trial 2, contact assay, dose 0.78 μM, 6 hr)?
A: 0%

Q: What about the mortality at 3.125 µM (6 h, read-out: % Mortality R1 + R2, Trial 2, contact assay, dose 3.125 μM, 6 hr) of the same molecule?
A: 0%

Q: What about the mortality at 12.5 µM (6 h, read-out: % Mortality R1 + R2, Trial 2, contact assay, dose 12.5 μM, 6 hr) of the same molecule?
A: 10%

Q: And the mortality at 50 µM (6 h, read-out: % Mortality R1 + R2, Trial 2, contact assay, dose 50 μM, 6 hr)?
A: 100%

Q: What about the mortality at 0.049 µM (12 h, read-out: % Mortality R1 + R2, Trial 1, contact assay, dose 0.049 μM, 12 hr) of the same molecule?
A: 0%

Q: What about the mortality at 0.2 µM (12 h, read-out: % Mortality R1 + R2, Trial 1, contact assay, dose 0.20 μM, 12 hr) of the same molecule?
A: 0%

Q: What about the mortality at 0.78 µM (12 h, read-out: % Mortality R1 + R2, Trial 1, contact assay, dose 0.78 μM, 12 hr) of the same molecule?
A: 0%

Q: What about the mortality at 3.125 µM (12 h, read-out: % Mortality R1 + R2, Trial 1, contact assay, dose 3.125 μM, 12 hr) of the same molecule?
A: 10%

Q: What about the mortality at 12.5 µM (12 h, read-out: % Mortality R1 + R2, Trial 1, contact assay, dose 12.5 μM, 12 hr) of the same molecule?
A: 70%

Q: What about the mortality at 50 µM (12 h, read-out: % Mortality R1 + R2, Trial 1, contact assay, dose 50 μM, 12 hr) of the same molecule?
A: 100%

Q: And the mortality at 0.049 µM (12 h, read-out: % Mortality R1 + R2, Trial 2, contact assay, dose 0.049 μM, 12 hr)?
A: 0%

Q: And the mortality at 0.2 µM (12 h, read-out: % Mortality R1 + R2, Trial 2, contact assay, dose 0.20 μM, 12 hr)?
A: 10%

Q: And the mortality at 0.78 µM (12 h, read-out: % Mortality R1 + R2, Trial 2, contact assay, dose 0.78 μM, 12 hr)?
A: 0%

Q: And the mortality at 3.125 µM (12 h, read-out: % Mortality R1 + R2, Trial 2, contact assay, dose 3.125 μM, 12 hr)?
A: 20%

Q: What about the mortality at 12.5 µM (12 h, read-out: % Mortality R1 + R2, Trial 2, contact assay, dose 12.5 μM, 12 hr) of the same molecule?
A: 100%

Q: And the mortality at 50 µM (12 h, read-out: % Mortality R1 + R2, Trial 2, contact assay, dose 50 μM, 12 hr)?
A: 100%

Q: What about the mortality at 0.049 µM (24 h, read-out: % Mortality R1 + R2, Trial 1, contact assay, dose 0.049 μM, 24 hr) of the same molecule?
A: 0%

Q: What about the mortality at 0.2 µM (24 h, read-out: % Mortality R1 + R2, Trial 1, contact assay, dose 0.20 μM, 24 hr) of the same molecule?
A: 0%

Q: What about the mortality at 0.78 µM (24 h, read-out: % Mortality R1 + R2, Trial 1, contact assay, dose 0.78 μM, 24 hr) of the same molecule?
A: 0%

Q: What about the mortality at 3.125 µM (24 h, read-out: % Mortality R1 + R2, Trial 1, contact assay, dose 3.125 μM, 24 hr) of the same molecule?
A: 60%

Q: What about the mortality at 12.5 µM (24 h, read-out: % Mortality R1 + R2, Trial 1, contact assay, dose 12.5 μM, 24 hr) of the same molecule?
A: 100%

Q: What about the mortality at 50 µM (24 h, read-out: % Mortality R1 + R2, Trial 1, contact assay, dose 50 μM, 24 hr) of the same molecule?
A: 100%

Q: What about the mortality at 0.049 µM (24 h, read-out: % Mortality R1 + R2, Trial 2, contact assay, dose 0.049 μM, 24 hr) of the same molecule?
A: 0%

Q: What about the mortality at 0.2 µM (24 h, read-out: % Mortality R1 + R2, Trial 2, contact assay, dose 0.20 μM, 24 hr) of the same molecule?
A: 30%

Q: What about the mortality at 0.78 µM (24 h, read-out: % Mortality R1 + R2, Trial 2, contact assay, dose 0.78 μM, 24 hr) of the same molecule?
A: 0%

Q: And the mortality at 3.125 µM (24 h, read-out: % Mortality R1 + R2, Trial 2, contact assay, dose 3.125 μM, 24 hr)?
A: 100%

Q: What about the mortality at 12.5 µM (24 h, read-out: % Mortality R1 + R2, Trial 2, contact assay, dose 12.5 μM, 24 hr) of the same molecule?
A: 100%

Q: What about the mortality at 50 µM (24 h, read-out: % Mortality R1 + R2, Trial 2, contact assay, dose 50 μM, 24 hr) of the same molecule?
A: 100%

Q: What about the mortality at 0.049 µM (48 h, read-out: % Mortality R1 + R2, Trial 1, contact assay, dose 0.049 μM, 48 hr) of the same molecule?
A: 0%

Q: And the mortality at 0.2 µM (48 h, read-out: % Mortality R1 + R2, Trial 1, contact assay, dose 0.20 μM, 48 hr)?
A: 10%

Q: And the mortality at 0.78 µM (48 h, read-out: % Mortality R1 + R2, Trial 1, contact assay, dose 0.78 μM, 48 hr)?
A: 10%

Q: What about the mortality at 3.125 µM (48 h, read-out: % Mortality R1 + R2, Trial 1, contact assay, dose 3.125 μM, 48 hr) of the same molecule?
A: 100%

Q: And the mortality at 12.5 µM (48 h, read-out: % Mortality R1 + R2, Trial 1, contact assay, dose 12.5 μM, 48 hr)?
A: 100%

Q: And the mortality at 50 µM (48 h, read-out: % Mortality R1 + R2, Trial 1, contact assay, dose 50 μM, 48 hr)?
A: 100%

Q: What about the mortality at 0.049 µM (48 h, read-out: % Mortality R1 + R2, Trial 2, contact assay, dose 0.049 μM, 48 hr) of the same molecule?
A: 0%

Q: What about the mortality at 0.2 µM (48 h, read-out: % Mortality R1 + R2, Trial 2, contact assay, dose 0.20 μM, 48 hr) of the same molecule?
A: 90%

Q: And the mortality at 0.78 µM (48 h, read-out: % Mortality R1 + R2, Trial 2, contact assay, dose 0.78 μM, 48 hr)?
A: 100%

Q: What about the mortality at 3.125 µM (48 h, read-out: % Mortality R1 + R2, Trial 2, contact assay, dose 3.125 μM, 48 hr) of the same molecule?
A: 100%

Q: What about the mortality at 12.5 µM (48 h, read-out: % Mortality R1 + R2, Trial 2, contact assay, dose 12.5 μM, 48 hr) of the same molecule?
A: 100%

Q: What about the mortality at 50 µM (48 h, read-out: % Mortality R1 + R2, Trial 2, contact assay, dose 50 μM, 48 hr) of the same molecule?
A: 100%
